One assay addresses BACE1 (Homo sapiens, UniProt P56817). As to the kind of experiment: In vitro enzymatic BACE FRET assay. The class given is biochemical. The note with it: beta secretase enzyme 0.2 nM, FRET substrate 50 nM, pH 4.2; read-out: BACE1 FRET assay (IC50 class). On the procedure:
In Vitro Enzymatic BACE FRET (Fluorescence Resonance Energy Transfer) Assay (Enzyme Assay Data in Table 1)
The assay buffer used in this screen is 0.05 M acetate, pH 4.2, 10% DMSO final, 100 uM genapol (which is a nonionic detergent, below its Critical Micelle Concentration). The beta secretase enzyme (0.2 nM) is pre-incubated for one hour with inhibitors, typically in about 1 uL of DMSO according to a serial dilution, are added thereto. The assay is effectively started by the addition of FRET substrate (50 nM) and the combination is incubated for one hour. The FRET assay is terminated with by addition of Tris buffer, which raises the pH to neutrality, and the fluorescence is determined. The FRET substrate is a peptide with commercially available fluorophore and quencher, on opposite sides of the BACE cleavage site. Proteolytic cleavage of the FRET substrate releases quenching of fluorescence (excitation […] and […]).
Of the compounds tested, the in-vitro BACE FRET enzyme data for each of Examples 1-220, where available at the time of filing this application, is provided in Table 1.

The subject of assay [1] is Aβ40 in conditioned medium of cells stably expressing Amyloid Precursor Protein (APP). Put plainly: In vitro BACE cell-based assay (HEK cell assay), Aβ40 sandwich ELISA. The note with it: Homo sapiens, HEK293, 24 h, inhibition of Aβ40, 24 h incubation, read-out: HEK cell assay (IC50 class). Here is the method:
In Vitro BACE Cell-Based Assay:
The cell-based assay measures inhibition or reduction of Aβ40 in conditioned medium of test compound treated cells expressing amyloid precursor protein.
Cells stably expressing Amyloid Precursor Protein (APP) were plated at a density of 40K cells/well in 96 well plates (Costar). The cells were cultivated for 24 hours at 37° C. and 5% CO2 in DMEM supplemented with 10% FBS. The test compounds were then added to cells in 10-point dose response concentrations with the starting concentration being either 100 μM or 10 μM. The compounds were diluted from stock solutions in DMSO and the final DMSO concentration of the test compounds on cells was 0.1%. After 24 h of incubation with the test compounds the supernatant conditioned media was collected and the Aβ 40 levels were determined using a sandwich ELISA. The IC50 of the compound was calculated from the percent of control or percent inhibition of Aβ 40 as a function of the concentration of the test compound.
The sandwich ELISA to detect Aβ 40 was performed in 96 well microtiter plates, which were pre-treated with goat anti-rabbit IgG (Pierce). The capture and detecting antibody pair that were used to detect Aβ 40 from cell supernatants were affinity purified pAb40 (Biosource) and biotinylated 6E10 (Signet Labs Inc.), respectively. The optimal concentration for the pAb40 antibody was 3 μg/ml in Superblock/TBS (Pierce) that was supplemented with 0.05% Tween 20 (Sigma). Optimal concentration for the detection antibody 6E10-biotinylated was 0.5 μg/ml in Superblock/TBS (Pierce) that had been supplemented with 2% normal goat serum and 2% normal mouse serum.
Cellular supernatants were incubated with the capture antibody for 3 h at 4° C., followed by 3 wash steps in TBS-tween (0.05%). The detecting antibody incubation was for 2 h at 4° C., again followed by the wash steps as described previously. The final readout of the ELISA is Time-Resolved Fluorescence (counts per minute) using Delfia reagents Streptavidin-Europium and Enhancement solutions (Perkin Elmer) and the Victor 2 multilabel counter (Perkin Elmer).
(In general: In an ELISA, binding on a coated surface is turned into a signal by an enzyme label.)

As a reminder, the IC50 is the midpoint of a concentration-inhibition curve.

Chain of BACE1 (P56817 46-501, species assumed): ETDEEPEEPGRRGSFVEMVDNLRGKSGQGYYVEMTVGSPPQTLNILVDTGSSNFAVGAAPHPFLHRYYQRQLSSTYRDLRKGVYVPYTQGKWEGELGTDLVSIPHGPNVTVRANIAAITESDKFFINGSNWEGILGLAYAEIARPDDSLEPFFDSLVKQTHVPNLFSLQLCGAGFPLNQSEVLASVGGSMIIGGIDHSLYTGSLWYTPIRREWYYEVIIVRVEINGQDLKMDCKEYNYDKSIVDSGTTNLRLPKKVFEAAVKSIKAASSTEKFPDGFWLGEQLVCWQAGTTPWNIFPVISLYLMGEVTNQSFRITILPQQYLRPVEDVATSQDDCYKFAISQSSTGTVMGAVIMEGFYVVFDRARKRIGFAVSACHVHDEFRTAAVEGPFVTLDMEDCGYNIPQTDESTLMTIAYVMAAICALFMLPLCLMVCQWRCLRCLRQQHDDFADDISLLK

Turning to `Cc1cccc(C(=O)N2CC(C)CC(C)C2)c1-c1ccc2nc(N)c(N3CCOCC3)cc2c1` (centres unmarked) [Example 88, (2-(2-amino-3-morpholinoquinolin-6-yl)-3-methylphenyl)(3,5-dimethylpiperidin-1-yl)methanone], the concentration for half-maximal inhibition (IC50) was in the range of 100 to 500 nM at BACE1 and 1010 to 5000 nM in assay [1].

For the molecule `COc1ccccc1C(=O)c1cccc(C)c1-c1ccc2nc(N)c(C3CCOCC3)cc2c1` [Example 212, (2-(2-amino-3-(tetrahydro-2H-pyran-4-yl)quinolin-6-yl)-3-methylphenyl)(2-methoxyphenyl)methanone], the IC50 (at BACE1; in assay [1]) was less than 100 nM throughout.

On to `Cc1cccc(C(=O)N2CCCCC2C)c1-c1ccc2nc(N)c(N3CCOCC3)cc2c1` (centres unmarked) [Example 87, (2-(2-amino-3-morpholinoquinolin-6-yl)-3-methylphenyl)(2-methylpiperidin-1-yl)methanone], for which the values for the IC50 (on BACE1; in assay [1]) were less than 100 nM and 501 to 1000 nM, respectively.

For `CC(C)(C)CCc1cccc(C(=O)N2CC[C@H](F)C2)c1-c1ccc2nc(N)c(N3CCOCC3)cc2c1` [Example 166, (S)-(2-(2-amino-3-morpholinoquinolin-6-yl)-3-(3,3-dimethylbutyl)phenyl)(3-fluoropyrrolidin-1-yl)methanone], the IC50 (at BACE1; in assay [1]) was less than 100 nM each time.

As to `CCCC1CCCN1C(=O)c1cccc(C)c1-c1ccc2nc(N)c(N3CCOCC3)cc2c1` (centres unmarked) [Example 63, (2-(2-amino-3-morpholinoquinolin-6-yl)-3-methylphenyl)(2-propylpyrrolidin-1-yl)methanone], the IC50 lay within 100 to 500 nM on BACE1 and 1010 to 5000 nM in assay [1].

With `COC1CCCN(C(=O)c2cccc(C)c2-c2ccc3nc(N)c(N4CCOCC4)cc3c2)C1` (centres unmarked) [Example 82, (2-(2-amino-3-morpholinoquinolin-6-yl)-3-methylphenyl)(3-methoxypiperidin-1-yl)methanone], the IC50 at BACE1 lay in the range of 100 to 500 nM; in assay [1], 1010 to 5000 nM.

With `Cc1ccccc1C(N)c1cccc(C)c1-c1ccc2nc(N)c(N3CCOCC3)cc2c1` (centres unmarked) [Example 193, 6-(2-(amino(o-tolyl)methyl)-6-methylphenyl)-3-morpholinoquinolin-2-amine], the IC50 (at BACE1; in assay [1]) was less than 100 nM throughout.

`CC(C)(C)CC(=O)c1cccc(C(=O)N2CCCC2)c1-c1ccc2nc(N)c(N3CCOCC3)cc2c1` [Example 46, 1-(2-(2-amino-3-morpholinoquinolin-6-yl)-3-(pyrrolidine-1-carbonyl)phenyl)-3,3-dimethylbutan-1-one]: the results for the IC50 (at BACE1; in assay [1]) were less than 100 nM and 100 to 500 nM, respectively.

Take `Cc1cccc(OC2CCOC2)c1-c1ccc2nc(N)c(N3CCOCC3)cc2c1` (centres unmarked) [Example 54, 6-(2-methyl-6-(tetrahydrofuran-3-yloxy)phenyl)-3-morpholinoquinolin-2-amine]: the figures for the IC50 (on BACE1; in assay [1]) were 501 to 1000 nM and 1010 to 5000 nM, respectively.

`Cc1cccc(C(=O)N2CCCC2)c1-c1ccc2nc(N)c(N3CCOC(C)C3C)cc2c1` (centres unmarked) [Example 209, (2-(2-amino-3-(2,3-dimethylmorpholino)quinolin-6-yl)-3-methylphenyl)(pyrrolidin-1-yl)methanone]: the half-inhibitory concentration (IC50) on BACE1 is less than 100 nM; in assay [1], 501 to 1000 nM.

As for `Cc1cccc(C(=O)N2CCOC(C)(C)C2)c1-c1ccc2nc(N)c(N3CCOCC3)cc2c1` [Example 43, (2-(2-amino-3-morpholinoquinolin-6-yl)-3-methylphenyl)(2,2-dimethylmorpholino)methanone], the IC50 on BACE1 was in the range of 100 to 500 nM; in assay [1] it was 1010 to 5000 nM.

With `CC(C)(C)C#Cc1cccc(C(=O)N2CCCC2)c1-c1ccc2nc(N)c(N3CCOCC3)cc2c1` [Example 44, (2-(2-amino-3-morpholinoquinolin-6-yl)-3-(3,3-dimethylbut-1-ynyl)phenyl)(pyrrolidin-1-yl)methanone], the IC50 on BACE1 was less than 100 nM; in assay [1], 100 to 500 nM.

Take `Cc1cccc(-n2cc(Cl)cn2)c1-c1ccc2nc(N)c(N3CCOCC3)cc2c1` [Example 204, 6-(2-(4-chloro-1H-pyrazol-1-yl)-6-methylphenyl)-3-morpholinoquinolin-2-amine]: the IC50 on BACE1 is 501 to 1000 nM; in assay [1], greater than 5000 nM.

As for `Nc1nc2ccc(-c3ccccc3CC3CCOCC3)cc2cc1N1CCOCC1` [Example 13, 3-morpholino-6-(2-((tetrahydro-2H-pyran-4-yl)methyl)phenyl)quinolin-2-amine], the IC50 on BACE1 was 100 to 500 nM; in assay [1], 1010 to 5000 nM.

Take `CCN(C(=O)c1cccc(C)c1-c1ccc2nc(N)c(N3CCOCC3)cc2c1)C1CC1` [Example 107, 2-(2-amino-3-morpholinoquinolin-6-yl)-N-cyclopropyl-N-ethyl-3-methylbenzamide]: the IC50 was 100 to 500 nM at BACE1 and 1010 to 5000 nM in assay [1].

For the molecule `Cc1cccc(C(=O)N2CCSC2)c1-c1ccc2nc(N)c(N3CCOCC3)cc2c1` [Example 89, (2-(2-amino-3-morpholinoquinolin-6-yl)-3-methylphenyl)(thiazolidin-3-yl)methanone], the IC50 on BACE1 is less than 100 nM; in assay [1] it was 501 to 1000 nM.

For the molecule `Cc1cccc(C(=O)N2CCC[C@@H](C)C2)c1-c1ccc2nc(N)c(N3CCOCC3)cc2c1` [Example 77, (R)-(2-(2-amino-3-morpholinoquinolin-6-yl)-3-methylphenyl)(3-methylpiperidin-1-yl)methanone], the figures for the IC50 (on BACE1; in assay [1]) were less than 100 nM and 1010 to 5000 nM, respectively.

`COc1cccnc1C(=O)c1cccc(C)c1-c1ccc2nc(N)c(N3CCOCC3)cc2c1` [Example 187, (2-(2-amino-3-morpholinoquinolin-6-yl)-3-methylphenyl)(3-methoxypyridin-2-yl)methanone]: the figures for the IC50 (on BACE1; in assay [1]) were less than 100 nM and 100 to 500 nM, respectively.

On to `CC(C)(C)CCc1cccc(C(=O)N2CCCC2)c1-c1ccc2nc(N)c(N3C[C@@H]4C[C@H]3CO4)cc2c1` [Example 165, (2-(2-amino-3-((1S,4S)-2-oxa-5-azabicyclo[2.2.1]heptan-5-yl)quinolin-6-yl)-3-(3,3-dimethylbutyl)phenyl)(pyrrolidin-1-yl)methanone], for which the IC50 (on BACE1; in assay [1]) was less than 100 nM each time.

Regarding `Cc1cccc(C(=O)N2CCCC2)c1-c1ccc2nc(N)c(C3CCOCC3)cc2c1` [Example 28, (2-(2-amino-3-(tetrahydro-2H-pyran-4-yl)quinolin-6-yl)-3-methylphenyl)(pyrrolidin-1-yl)methanone], the IC50 (on BACE1; in assay [1]) was less than 100 nM throughout.

In the case of `Cc1cccc(C(=O)N(C)CCC(C)C)c1-c1ccc2nc(N)c(N3CCOCC3)cc2c1` [Example 119, 2-(2-amino-3-morpholinoquinolin-6-yl)-N-isopentyl-N,3-dimethylbenzamide], the IC50 at BACE1 lay in the range of 100 to 500 nM; in assay [1], 1010 to 5000 nM.

Regarding `Cc1cccc(C(=O)N2CCC(F)(F)C2)c1-c1ccc2nc(N)c(N3CCOCC3)cc2c1` [Example 98, (2-(2-amino-3-morpholinoquinolin-6-yl)-3-methylphenyl)(3,3-difluoropyrrolidin-1-yl)methanone], the IC50 at BACE1 is less than 100 nM; in assay [1], 100 to 500 nM.

Turning to `Cc1cccc(C(=O)N(C)Cc2ccccc2)c1-c1ccc2nc(N)c(N3CCOCC3)cc2c1` [Example 136, 2-(2-amino-3-morpholinoquinolin-6-yl)-N-benzyl-N,3-dimethylbenzamide], the IC50 fell in the range of 100 to 500 nM on BACE1 and 1010 to 5000 nM in assay [1].

As to `CCCN(C)C(=O)c1cccc(C)c1-c1ccc2nc(N)c(N3CCOCC3)cc2c1` [Example 110, 2-(2-amino-3-morpholinoquinolin-6-yl)-N,3-dimethyl-N-propylbenzamide], the IC50 fell in the range of 100 to 500 nM at BACE1 and 1010 to 5000 nM in assay [1].

In the case of `CCCCN(C)C(=O)c1cccc(C)c1-c1ccc2nc(N)c(N3CCOCC3)cc2c1` [Example 117, 2-(2-amino-3-morpholinoquinolin-6-yl)-N-butyl-N,3-dimethylbenzamide], the values for the IC50 (at BACE1; in assay [1]) were less than 100 nM and 1010 to 5000 nM, respectively.

The record behind these values is patent publication US8735384B2, “Amino heteroaryl compounds as beta-secretase modulators and methods of use” (Amgen Inc., priority 2010, dated 2014).
